Measured values from article PMC12290638, “Cubebin, a Lignan Isolated from Drimys andina, Exhibits Potent and Selective Antiparasitic Activity against Angiostrongylus cantonensis” (ACS Omega, 2025).
“Also recorded” adds a separate entry of the source. Where two headings read alike, the source gives them in different places.

How the values were obtained:
[1] = tested on: Angiostrongylus cantonensis infective third-stage (L3) larvae; test: Antiparasitic assay with A. cantonensis L3 larvae (motility); type: cell-based; details: for EC50: read-out: A. cantonensis EC50, L3; for selectivity index, L3: SI = CC50 (human HaCaT cells)/EC50 (L3)
Procedure: (§1) The life cycle of A. cantonensis (NPDN-AC strain) was maintained at the Research Center on Neglected Diseases, Guarulhos University, using either Biomphalaria glabrata (freshwater snails) or Achatina fulica (terrestrial mollusks) as intermediate hosts, and Wistar rats (Rattus norvegicus) as definitive hosts. All animals were maintained under controlled conditions (22 °C, ∼50% humidity) with ad libitum access to food and water.
Third-stage larvae (L3) of A. cantonensis were obtained from infected A. fulica via artificial digestion in HCl-pepsin solution, followed by sedimentation using the modified Rugai method. Approximately 50 larvae were added per well in 96-well plates. Cubebin and albendazole were tested starting at 100 μM in a serial dilution format for EC50 estimation. Plates were incubated at 21 °C, and larval viability was assessed at 0 and 24 h using an inverted microscope. […] Efficacy was defined as ≥60% immobility after 24 h.
(§2) EC50 and CC50 values were calculated from nonlinear sigmoidal dose–response curves using GraphPad Prism version 8.0 (San Diego, CA). Group differences were analyzed using one-way ANOVA followed by Tukey’s post hoc test. A P-value of <0.05 was considered statistically significant.

[2] = tested on: Angiostrongylus cantonensis first-stage (L1) larvae; test: Antiparasitic assay with A. cantonensis L1 larvae (motility); type: cell-based; details: for EC50: Angiostrongylus cantonensis, read-out: A. cantonensis EC50, L1; for selectivity index, L1: SI = CC50 (human HaCaT cells)/EC50 (L1)
Procedure: as §1
First-stage larvae (L1) of A. cantonensis were isolated from the feces of infected Wistar rats using the Rugai sedimentation technique, followed by washing in RPMI 1640 medium containing antibiotics. Approximately 50 larvae were transferred to each well of a 96-well plate. Cubebin and albendazole (positive control) were tested starting at 100 μM using a serial dilution format for EC50 determination. Plates were incubated at 21 °C. Untreated larvae served as negative controls. […] Efficacy was defined as ≥60% of larvae becoming immobile after 24 h.
as §2

[3] = tested on: Vero cells (monkey kidney epithelial cells); test: Cytotoxicity assay (MTT), Vero cells; type: cell-based; details: at concentrations up to 200 μM
Procedure: (§3) HaCaT cells (human keratinocytes) were obtained from the Banco de Células do Rio de Janeiro (Duque de Caxias, RJ, Brazil), and Vero cells (monkey kidney epithelial cells) were purchased from the American Type Culture Collection (ATCC CCL-81; Manassas, V). Cells were cultured in DMEM supplemented with 2 mM L-glutamine (Vitrocell), 100 U/mL penicillin, 100 μg/mL streptomycin, and 10% heat-inactivated fetal bovine serum, and maintained at 37 °C in a humidified atmosphere containing 5% CO2.
(§4) Cytotoxicity was evaluated using the MTT assay as previously described. Briefly, cells were seeded into 96-well plates (Corning) at a density of 2 × 10^3 cells per well and exposed to cubebin. The initial concentration tested was 500 μM, followed by 3-fold serial dilutions. Doxorubicin (15 μM) served as the positive control, while 0.5% DMSO was used as negative control. After 24 h of incubation at 37 °C with 5% CO2, MTT solution (Sigma) was added, and plates were incubated for an additional 4 h. Absorbance was measured at 595 nm using a spectrophotometer (Epoch, BioTek Instruments, Winooski, VT). Cell viability was expressed as a percentage relative to control wells. All assays were performed in triplicate and repeated independently three times.
as §2

[4] = Cytotoxicity assay (MTT), Vero cells; type: cell-based, monkey; details: monkey, Vero cells, MTT, 48 h exposure per figure legend (method: 24 h), read-out: mammalian cells CC50, monkey
Procedure: as §3, §4, §2

[5] = tested on: HaCaT cells (human keratinocytes); test: Cytotoxicity assay (MTT), HaCaT cells; type: cell-based; details: at concentrations up to 200 μM
Procedure: as §3, §4, §2

[6] = Cytotoxicity assay (MTT), HaCaT cells; type: cell-based, human; details: human, HaCaT cells, MTT, 48 h exposure per figure legend (method: 24 h), read-out: mammalian cells CC50, human
Procedure: as §3, §4, §2

[7] = tested on: Caenorhabditis elegans (Bristol N2 strain) L4 larvae; test: Lethal toxicity assay in C. elegans; type: in vivo; details: for C. elegans LD50 (lethal concentration 50%): L4 larvae, immobility, 72 h exposure per b20 (method b64: 24 h); for toxicity in C. elegans: cubebin at concentrations up to 1000 μM
Procedure: The nematode C. elegans (Bristol N2 strain) was maintained on nematode growth medium (NGM) plates seeded with Escherichia coli […].
Synchronized fourth-stage larvae (L4) of C. elegans were transferred to 96-well plates containing M9 medium, with approximately 60 larvae per well. Cubebin was tested at concentrations starting from 1000 μM. Ivermectin (10 μM) served as the positive control, while 0.5% DMSO was used as the negative control. After 24 h of incubation at 21 °C, larval viability was evaluated based on movement. Toxicity was defined as ≥60% immobility.

[8] = 24 h, score 1 = immotile to 4 = highly active

Compound: CCCSc1ccc2nc(NC(=O)OC)[nH]c2c1 [albendazole, reference compound]
- EC50 ([1]; Angiostrongylus cantonensis, 24 h): 12.3 ± 1.9 µM
- selectivity index, L3 [1]: >16.2
- EC50 ([2]; 24 h): 12.8 ± 1.3 µM
- selectivity index, L1 [2]: >15.6
- cytotoxicity in Vero cells [3]: no cytotoxicity
- CC50 at 48 h [4]: > 200 µM
- cytotoxicity in HaCaT cells [5]: no cytotoxicity
- CC50 at 48 h [6]: > 200 µM
- C. elegans LD50 (lethal concentration 50%) [7]: 13.6 ± 1.1 µM
- toxicity in C. elegans [7]: potent toxicity

Compound: OC1OCC(Cc2ccc3c(c2)OCO3)C1Cc1ccc2c(c1)OCO2 (centres unmarked) [cubebin]
- larval viability (motility) score, L3 [1, 8]: 1
- EC50 ([1]; Angiostrongylus cantonensis, 24 h, infective third-stage (L3) larvae, 24 h, 21 °C, immobility, mean ± SD, three independent experiments): 15.3 µM
- selectivity index, L3 [1]: >13.1
- EC50 ([1]; infective third-stage (L3) larvae, 24 h, 21 °C, immobility, mean ± SD, three independent experiments): 15.2 ± 0.9 µM
- larval viability (motility) score, L1 [2, 8]: 1
- EC50 ([2]; first-stage (L1) larvae, 24 h, 21 °C, immobility, mean ± SD, three independent experiments): 4.7 ± 0.8 µM
- selectivity index, L1 [2]: >42.5
- cytotoxicity in Vero cells [3]: no cytotoxicity
- CC50 at 48 h ([4]; Vero cells (monkey kidney epithelial cells, ATCC CCL-81)): > 200 µM
- cytotoxicity in HaCaT cells [5]: no cytotoxicity
- CC50 at 48 h ([6]; HaCaT cells (human keratinocytes)): > 200 µM
- C. elegans LD50 (lethal concentration 50%) [7]: >1000 µM
- toxicity in C. elegans [7]: no observable toxicity; also recorded: nontoxic
